Data on seven molecules can be found in ChEMBL document CHEMBL6078649, “Discovery of Chalcone Derivatives as Bifunctional Molecules with Anti-SARS-CoV-2 and Anti-inflammatory Activities” (J Nat Prod, 2024).

Series [1] in a line: Cytotoxicity against mouse RAW264.7 cells assessed as cell viability at 1 uM incubated for 24 hrs by CCK8 assay relative to control. The series is classed as toxicity, cell-based. The settings on record: read-out: Activity. Background: Formazan colour is commonly taken as a measure of viable cells.
Series [2] deals with T1, Replicase polyprotein 1ab (Severe acute respiratory syndrome coronavirus 2, UniProt P0DTD1). Description: Inhibition of SARS-CoV-2 3CLPro using DabcylKNSTLQSGLRK-Edans as substrate measured after 60 mins by FRET assay.
In series [3] the target is T1, Replicase polyprotein 1ab. Briefly: Inhibition of SARS-CoV-2 3CLPro using DabcylKNSTLQSGLRK-Edans as substrate measured after 3 mins by FRET assay.
Series [4] has as its target Cathepsin B (Homo sapiens) (UniProt P07858). Briefly: Inhibition of CTSB (unknown origin) using Z-Phe-ArgAMC as substrate at 10 uM preincubated for 30 mins followed by substrate addition by fluorescence based analysis.
Series [5] concerns the target T2, Chymotrypsin-C (Homo sapiens) (UniProt Q99895).
T2 sequence (whole entry): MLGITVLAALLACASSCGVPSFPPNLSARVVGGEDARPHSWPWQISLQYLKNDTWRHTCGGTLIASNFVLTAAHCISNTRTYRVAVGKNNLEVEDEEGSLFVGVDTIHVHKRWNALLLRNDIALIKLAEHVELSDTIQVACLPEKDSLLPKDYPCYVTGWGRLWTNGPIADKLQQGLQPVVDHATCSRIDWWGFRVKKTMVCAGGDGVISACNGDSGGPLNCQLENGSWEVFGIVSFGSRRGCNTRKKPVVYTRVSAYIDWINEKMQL
Briefly: Inhibition of human CTRC using succinyl-Ala-Ala-Pro-Phe-p-nitroanilide as substrate at 10 uM preincubated for 30 mins followed by trypsin treatment for 1 hr and subsequent addition of substrate by absorbance based assay.

Series [6] concerns the target Replicase polyprotein 1ab (Severe acute respiratory syndrome coronavirus 2) (UniProt P0DTD1). Briefly: Inhibition of SARS-CoV-2 3CLPro using DabcylKNSTLQSGLRK-Edans as substrate at 5 uM preincubated for 30 mins followed by substrate addition measured after 20 mins by FRET assay relative to control. The note with it: time 50.0 min.
Series [7] addresses T1, Replicase polyprotein 1ab.
Series [8] in a line: Cytotoxicity against mouse RAW264.7 cells assessed as cell viability at 50 uM incubated for 24 hrs by CCK8 assay relative to control. The series is classed as toxicity, cell-based. The settings on record: read-out: Activity.
The subject of series [9] is RAW264.7. Description: Anti-inflammatory activity against mouse RAW264.7 cells assessed as inhibition of LPS-induced NO production at 1 uM preincubated for 1 hr followed by LPS treatment measured after 24 hrs relative to control. The series is classed as functional. The settings on record: time 25 hrs.
Series [10] has as its target Procathepsin L (Homo sapiens) (UniProt P07711). Description: Inhibition of CTSL (unknown origin) using Z-Phe-ArgAMC as substrate at 10 uM preincubated for 30 mins followed by substrate addition by fluorescence based analysis.
Series [11] can be described thus: Cytotoxicity against mouse RAW264.7 cells assessed as cell viability at 10 uM incubated for 24 hrs by CCK8 assay relative to control. The series is classed as toxicity, cell-based. The settings on record: read-out: Activity.
The nature of series [12]: Cytotoxicity against human Huh-7 cells harboring viral replicon/EGFP/Neo genes assessed as cell viability at 5 uM incubated for 24 hrs by Cell Titer Glo assay relative to control. The settings on record: read-out: Activity. The series is classed as toxicity, cell-based. In general terms: Replicon systems follow genome replication, usually without infectious particles.

Series [13] has as its target Transmembrane protease serine 2 (Homo sapiens) (UniProt O15393). Description: Inhibition of TMPRSS2 (unknown origin) using Boc-GIn-Ala-Arg-AMC as substrate at 10 uM preincubated for 60 mins followed by substrate addition by fluorescence based assay.
Series [14] can be described thus: Cytotoxicity against human Huh-7 cells harboring viral replicon/EGFP/Neo genes assessed as cell viability incubated for 24 hrs by Cell Titer Glo assay. The series is classed as toxicity, cell-based.
For series [15], the target named is Replicase polyprotein 1ab (Severe acute respiratory syndrome coronavirus 2) (UniProt P0DTD1). Description: Covalent binding affinity to SARS-CoV-2 3CLPro at 90 uM by MS analysis.
Series [16] shares this target. Briefly: Inhibition of SARS-CoV-2 3CLPro using DabcylKNSTLQSGLRK-Edans as substrate at 50 uM preincubated for 30 mins followed by substrate addition measured after 20 mins by FRET assay relative to control. The settings on record: time 50.0 min.
Series [17] has as its system RAW264.7. Briefly: Anti-inflammatory activity against mouse RAW264.7 cells assessed as inhibition of LPS-induced NO production at 10 uM preincubated for 1 hr followed by LPS treatment measured after 24 hrs relative to control. The settings on record: time 25 hrs. The series is classed as functional.
Series [18] in a line: Cytotoxicity against human Huh-7 cells harboring viral replicon/EGFP/Neo genes assessed as cell viability at 50 uM incubated for 24 hrs by Cell Titer Glo assay relative to control. The series is classed as toxicity, cell-based. The note with it: read-out: Activity.
In another series the test system is MGC-803. Briefly: Inhibition of cell proliferation of human MGC-803 cells at 10 uM. The series is classed as functional, cell-based.
The target in series [19] is Replicase polyprotein 1ab (Severe acute respiratory syndrome coronavirus 2) (UniProt P0DTD1). Briefly: (§1) Mixed inhibition of SARS-CoV-2 3CLPro using DabcylKNSTLQSGLRK-Edans as substrate by FRET assay.
In series [20] the target is T1, Replicase polyprotein 1ab. The series is described as §1.
Another series has as its system HOS-TE85. Briefly: Inhibition of cell proliferation of human MNNG/HOS cells at 10 uM. The series is classed as functional, cell-based.
The subject of a further series is SJSA-1. Briefly: Inhibition of cell proliferation of human SJSA-1 cells at 10 uM. The series is classed as functional, cell-based.
In another series the test system is GES1. Description: Inhibition of cell proliferation of human GES1 cells at 10 uM. The series is classed as functional, cell-based.
Another series deals with 143B. Briefly: Inhibition of cell proliferation of human 143B cells at 10 uM. The series is classed as functional, cell-based.
Another series has as its system KHOS/NP. Briefly: Inhibition of cell proliferation of human KHOS/NP cells at 10 uM. The series is classed as functional, cell-based.

The structures appear in SMILES notation. The source made the active and inactive calls. The rule behind the calls is not given here. Bounds are passed on as bounds.

Chain of Transmembrane protease serine 2 (Homo sapiens) (O15393 1-255 limits assumed): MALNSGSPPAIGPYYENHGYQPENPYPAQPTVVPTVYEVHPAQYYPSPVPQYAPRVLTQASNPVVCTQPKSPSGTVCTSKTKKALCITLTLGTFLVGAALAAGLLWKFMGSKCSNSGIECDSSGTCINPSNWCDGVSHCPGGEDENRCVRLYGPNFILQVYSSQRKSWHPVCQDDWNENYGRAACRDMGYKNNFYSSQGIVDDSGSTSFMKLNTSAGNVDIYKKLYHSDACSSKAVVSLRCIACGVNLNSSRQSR
Chain of Transmembrane protease serine 2 (Homo sapiens) (O15393 256-492 limits assumed): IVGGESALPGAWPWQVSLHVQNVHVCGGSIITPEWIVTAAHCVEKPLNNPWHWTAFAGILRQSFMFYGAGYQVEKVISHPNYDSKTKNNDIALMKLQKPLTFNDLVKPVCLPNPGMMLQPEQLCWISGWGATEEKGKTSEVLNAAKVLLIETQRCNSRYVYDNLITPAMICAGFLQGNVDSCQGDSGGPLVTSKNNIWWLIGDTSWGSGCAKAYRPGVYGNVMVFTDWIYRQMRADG
Chain of Procathepsin L (Homo sapiens) (P07711 114-333 limits assumed): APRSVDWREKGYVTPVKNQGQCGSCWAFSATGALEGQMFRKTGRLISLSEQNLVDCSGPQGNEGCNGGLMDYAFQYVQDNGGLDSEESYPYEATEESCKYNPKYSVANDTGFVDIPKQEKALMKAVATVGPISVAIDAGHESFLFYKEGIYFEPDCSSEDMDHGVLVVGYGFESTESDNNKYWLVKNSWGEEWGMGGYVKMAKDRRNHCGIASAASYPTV

For the molecule `O=C(/C=C/c1cc(O)c(O)c(O)c1)c1ccc(F)cc1`, in series [1], the viability at 24 h, 1 µM was 116%. Besides, the concentration for half-maximal inhibition (IC50) (usually the concentration that gives 50% inhibition) in [2] was 93.4 nM; in series [3], 461 nM; in series [7], 261 nM. Further, the inhibition entry in series [4], in series [10] and in series [13] was “inactive” throughout. Besides, the inhibition (in general, the relative decrease from the control value, in per cent) in series [5] was “Active”. In addition, the inhibition in series [6] came to 2.5%; in series [16] it was 0.5%. For the same molecule, the inhibition constant (Ki) (in general, the dissociation constant of the complex between target and ligand, obtained from inhibition or displacement) in [7] came out at 800 nM. In addition, the viability at 24 h, 50 µM is 100% in series [8] and 63.4% in [18]. The inhibition at 1 µM in the series with RAW264.7 [9] was 4.2%. The viability at 24 h, 10 µM in [11] amounted to 109%. Moreover, the viability at 24 h, 5 µM in series [12] was 95.2%. The CC50 (usually the concentration that lowers cell viability or growth by half) at 24 h in series [14] was more than 50000 nM. Further, the result in series [15] was Active. For the same molecule, the inhibition at 10 µM with RAW264.7 [17] was determined as 68.6%.
`O=C(CCc1cc(O)c(O)c(O)c1)c1ccc(F)cc1`: the viability at 24 h, 1 µM in series [1] was 117%. Also, the inhibition in series [6] came to 21.4%; in [16], 6.3%. This molecule also returned an IC50 in series [7] of 1770 nM. The viability at 24 h, 50 µM amounted to 87.6% in series [8] and 92.7% in series [18]. Further, the inhibition at 1 µM in the series on RAW264.7 [9] stood at 20.8%. The viability at 24 h, 10 µM in series [11] amounted to 103%. In addition, the viability at 24 h, 5 µM in series [12] worked out at 110%. The CC50 at 24 h in series [14] is more than 100000 nM. The inhibition at 10 µM with RAW264.7 [17] came to 54.1%.
As for `O=C(/C=C/c1c(Cl)c(O)c(O)c(O)c1Cl)c1c(Cl)c(O)c(O)c(O)c1Cl`, the viability at 24 h, 1 µM in series [1] worked out at 51.2%. In addition, the results for the inhibition in series [6] and in [16] were 0% and 0.2%, respectively. Further, the IC50 in series [7] was 115 nM. In addition, the viability at 24 h, 50 µM was found to be 82.4% in series [8] and 99.3% in series [18]. The inhibition at 1 µM with RAW264.7 [9] turned out to be 22.9%. Also, the viability at 24 h, 10 µM in series [11] was found to be 37%. In addition, the viability at 24 h, 5 µM in series [12] turned out to be 111%. Also, the inhibition at 10 µM in the series on RAW264.7 [17] turned out to be 76.9%.
As for `O=C(/C=C/c1c(Cl)c(O)c(O)c(O)c1Cl)c1ccccc1`, the viability at 24 h, 1 µM in series [1] stood at 95.5%. Further, the inhibition in [6] was 1%; in series [16] it was -0.3%. The molecule further returned an IC50 in series [7] of 143 nM. For the same molecule, the figures for the viability at 24 h, 50 µM in series [8] and in [18] were 96.9% and 64.2%, respectively. For the same molecule, the inhibition at 1 µM with RAW264.7 [9] came out at 14.6%. For the same molecule, the viability at 24 h, 10 µM in series [11] was found to be 66.8%. Further, the viability at 24 h, 5 µM in series [12] worked out at 105%. In addition, the inhibition at 10 µM with RAW264.7 [17] stood at 39.5%.
With `CC(=O)Oc1c(Cl)c(/C=C/C(=O)c2ccc(F)cc2)c(Cl)c(OC(C)=O)c1OC(C)=O`, the viability at 24 h, 1 µM in series [1] was found to be 93.8%. In addition, the inhibition in [6] came to 1.1%; in series [16], 1%. The same molecule showed an IC50 in [7] of 247 nM. Besides, the results for the viability at 24 h, 50 µM in series [8] and in series [18] were 54.1% and 62%, respectively. Besides, the inhibition at 1 µM with RAW264.7 [9] was 37.4%. Moreover, the viability at 24 h, 10 µM in series [11] turned out to be 97.5%. In addition, the viability at 24 h, 5 µM in series [12] was 111%. The CC50 at 24 h in [14] is more than 50000 nM. Besides, in the series on RAW264.7 [17], the inhibition at 10 µM is 85.2%.
In the case of `O=C(/C=C/c1c(Cl)c(O)c(O)c(O)c1Cl)c1ccc(F)cc1`, the viability at 24 h, 1 µM in series [1] was found to be 93.7%. The half-inhibitory concentration (IC50) worked out at 110 nM in series [2], 211 nM in [3] and 83.2 nM in series [7]. Moreover, the inhibition result (in the series on MGC-803; in series [4]; in the series on HOS-TE85; in the series with SJSA-1; in series [10]; in the series on GES1) was “inactive” in each case. Moreover, the inhibition result in the series on 143B and in the series on KHOS/NP was “inactive” in each case. Besides, the inhibition entry in series [19] is “Dose-dependent-effect; The Result Suggests That Compound May Bind To Both Enzymatic Active Site And Allosteric Sites”; in series [6], 0.8%; in [16], -0.1%. In addition, the affinity in [20] corresponds to a Ki of 200 nM. Moreover, the inhibition result in series [5] and in series [13] was “Active” throughout. Also, the figures for the viability at 24 h, 50 µM in [8] and in series [18] were 114% and 50%, respectively. Also, the inhibition at 1 µM with RAW264.7 [9] amounted to 29.1%. In addition, in [11], the viability at 24 h, 10 µM turned out to be 48.6%. In series [12], the viability at 24 h, 5 µM amounted to 104%. In addition, in series [14], the CC50 at 24 h is 41200 nM. In addition, in series [15], the outcome was inactive. Further, the inhibition at 10 µM in the series with RAW264.7 [17] was 81.1%.
Regarding `O=C(/C=C/c1c(Cl)c(O)c(O)c(O)c1Cl)c1ccc([N+](=O)[O-])cc1`, the viability at 24 h, 1 µM in series [1] stood at 115%. The results for the inhibition in series [6] and in series [16] were 0.6% and -0.2%, respectively. In series [7], this molecule showed an IC50 of 276 nM. For the same molecule, the viability at 24 h, 50 µM in series [8] is 77.4%; in [18], 74.7%. Also, in the series with RAW264.7 [9], the inhibition at 1 µM worked out at 2.1%. For the same molecule, the viability at 24 h, 10 µM in series [11] is 110%. The viability at 24 h, 5 µM in series [12] amounted to 110%. Also, the inhibition at 10 µM in the series with RAW264.7 [17] was determined as 70.7%.
